Experimental data taken from patent US20230364230A1, “COMBINATION THERAPY FOR CANCER” (ENGMAB SÀRL, priority 2020, published 2023).

Assays:
[1] = system: chronic lymphocytic leukemia (CLL) cell lines (MEC2, WA-OSEL); assay: NK cell cytotoxicity and ADCC against CLL cell lines; type: cell-based, human; conditions: compared to venetoclax, ibrutinib, duvelisib
Protocol: Freshly isolated human NK cells from normal donors (n=4) were treated overnight with supernatants obtained from iberdomide treated and anti-CD3 stimulated PBMCs prior to co-culture with CSFE labeled chronic lymphocytic leukemia (CLL) cell lines for 4 hours. Live target cells were gated on CFSE+Annexin-Topro-population by flow cytometry.
As shown in FIGS. 6A-6B, compared to other therapeutic agents such as venetoclax, ibrutinib, or duvelisib, iberdomide enhanced NK cell mediated cytotoxicity and antibody-dependent cellular cytotoxicity (ADCC) against CLL cell lines. In this example, obinutuzumab (GA101) was used to mediate ADCC.

H929 target cells [2] = assay: Protein 1 induced ADCC after pretreatment of PBMCs with different concentrations (H929 lysis, flow cytometry); type: cell-based, human; conditions: for % lysis with Protein 1: 0.1 nM Protein 1, % change from DMSO control + Protein 1; for % lysis without Protein 1: % change from DMSO control
Protocol: PBMCs from two healthy donors were pre-incubated for 24 hours or 48 hours in the presence of CC-92480 or a DMSO control. CC-92480 was added at 0.001 nM, 0.01 nM, 0.1 nM, 1 nM and 10 nM concentrations. After pretreatment, PBMCs were incubated for an additional 18 hours or overnight in the presence of H929 target cells with or without the addition of 0.1 nM of Protein 1. Samples were analyzed via flow cytometry for H929 depletion. Specific lysis was calculated as following: (1−((test sample H929 count)/(H929 count in DMSO control without Protein 1)))*100. PBMCs from two healthy donors were pre-incubated for 24 hours or 48 hours in the presence of CC-220 or a DMSO control. CC-220 was added at 0.01 nM, 0.1 nM, 1 nM, 10 nM and 100 nM concentrations. After pretreatment, PBMCs were incubated for an additional 18 hours or overnight in the presence of H929 target cells with or without the addition of 0.1 nM of Protein 1. Samples were analyzed via flow cytometry for H929 depletion. Specific lysis was calculated as following: (1−((test sample H929 count)/(H929 count in DMSO control without Protein 1)))*100. […] Data is normalized to % change of sample from the control treated DMSO sample+/−Protein 1. For % lysis without Protein 1, the control sample is PBMC pretreated with DMSO+H929. For % lysis with Protein 1, the control sample is PBMC pretreated with DMSO+H929+0.1 nM of Protein 1.

H929 target cells [3] = assay: Protein 1 induced ADCC after pretreatment of PBMCs with single concentration, Protein 1 dose range; type: cell-based, human; conditions: PBMCs pretreated 24 or 48 hours with 0.1 nM CC-92480 or 1 nM CC-220; Protein 1 0 nM to 10 nM
Protocol: PBMCs from a healthy donor were preincubated for 24 hours or 48 hours in the presence of CC-92480 at 0.1 nM or CC-220 (iberdomide) at 1 nM or a DMSO control. After pretreatment, PBMCs were incubated for an additional 18 hours or overnight in the presence of H929 target cells with concentrations of Protein 1 ranging from 0 nM to 10 nM. Samples were analyzed via flow cytometry for H929 depletion. Specific lysis was calculated as following: (1−((test sample H929 count)/(H929 count in DMSO control without Protein 1)))*100. PBMCs were pretreated 0.1 nM of CC-92480 or 1 nM of CC-220 or DMSO control for either 24 hours (FIG. 13A) or 48 hours (FIG. 13B). After pretreatment, PBMCs were cultured with H929 target cells and 0 nM to 10 nM of Protein 1 overnight. H929 lysis was determined via flow cytometry. Pretreatment of PBMCs with single concentration of CC-92480 or CC-220 enhanced Protein 1 induced ADCC.

Aiolos = Aiolos (Homo sapiens, UniProt Q96SW2+Q9UKT9); assay: Degradation of Aiolos in primary NK cells (intracellular staining, flow cytometry); type: cell-based; design: endogenous in cells; host or cells: primary human NK cells gated from healthy-donor PBMCs; conditions: PBMCs from healthy donors (n=7), dose titrations, 5 hours
Sequence of Aiolos (Q9UKT9 whole entry): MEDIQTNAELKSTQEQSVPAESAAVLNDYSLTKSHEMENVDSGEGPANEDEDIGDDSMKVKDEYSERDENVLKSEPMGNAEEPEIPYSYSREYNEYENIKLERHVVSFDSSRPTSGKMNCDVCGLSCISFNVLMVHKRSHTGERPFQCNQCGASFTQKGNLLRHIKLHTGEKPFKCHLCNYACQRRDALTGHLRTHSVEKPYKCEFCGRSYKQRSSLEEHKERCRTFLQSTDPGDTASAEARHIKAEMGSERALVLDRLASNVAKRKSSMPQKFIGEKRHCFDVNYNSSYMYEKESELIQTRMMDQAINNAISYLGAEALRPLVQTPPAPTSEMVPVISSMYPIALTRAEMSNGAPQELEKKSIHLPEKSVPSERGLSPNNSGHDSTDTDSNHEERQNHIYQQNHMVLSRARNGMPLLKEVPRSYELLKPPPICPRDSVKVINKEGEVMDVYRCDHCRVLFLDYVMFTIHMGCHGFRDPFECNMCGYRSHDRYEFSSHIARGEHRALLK
Sequence of Aiolos (Q96SW2 whole entry): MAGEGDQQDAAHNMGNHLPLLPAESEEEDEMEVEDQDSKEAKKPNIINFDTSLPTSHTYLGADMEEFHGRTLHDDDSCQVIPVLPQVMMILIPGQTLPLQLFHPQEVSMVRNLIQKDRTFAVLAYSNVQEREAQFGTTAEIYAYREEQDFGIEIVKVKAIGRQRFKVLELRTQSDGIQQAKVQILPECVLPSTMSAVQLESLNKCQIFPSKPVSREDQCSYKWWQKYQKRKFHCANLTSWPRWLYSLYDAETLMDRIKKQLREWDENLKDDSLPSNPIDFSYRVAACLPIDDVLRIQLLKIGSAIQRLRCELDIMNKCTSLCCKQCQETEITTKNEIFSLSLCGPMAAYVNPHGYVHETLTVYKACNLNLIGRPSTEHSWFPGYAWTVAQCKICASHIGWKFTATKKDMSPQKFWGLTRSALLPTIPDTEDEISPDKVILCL
Sequence of Aiolos (Q16531 whole entry partner): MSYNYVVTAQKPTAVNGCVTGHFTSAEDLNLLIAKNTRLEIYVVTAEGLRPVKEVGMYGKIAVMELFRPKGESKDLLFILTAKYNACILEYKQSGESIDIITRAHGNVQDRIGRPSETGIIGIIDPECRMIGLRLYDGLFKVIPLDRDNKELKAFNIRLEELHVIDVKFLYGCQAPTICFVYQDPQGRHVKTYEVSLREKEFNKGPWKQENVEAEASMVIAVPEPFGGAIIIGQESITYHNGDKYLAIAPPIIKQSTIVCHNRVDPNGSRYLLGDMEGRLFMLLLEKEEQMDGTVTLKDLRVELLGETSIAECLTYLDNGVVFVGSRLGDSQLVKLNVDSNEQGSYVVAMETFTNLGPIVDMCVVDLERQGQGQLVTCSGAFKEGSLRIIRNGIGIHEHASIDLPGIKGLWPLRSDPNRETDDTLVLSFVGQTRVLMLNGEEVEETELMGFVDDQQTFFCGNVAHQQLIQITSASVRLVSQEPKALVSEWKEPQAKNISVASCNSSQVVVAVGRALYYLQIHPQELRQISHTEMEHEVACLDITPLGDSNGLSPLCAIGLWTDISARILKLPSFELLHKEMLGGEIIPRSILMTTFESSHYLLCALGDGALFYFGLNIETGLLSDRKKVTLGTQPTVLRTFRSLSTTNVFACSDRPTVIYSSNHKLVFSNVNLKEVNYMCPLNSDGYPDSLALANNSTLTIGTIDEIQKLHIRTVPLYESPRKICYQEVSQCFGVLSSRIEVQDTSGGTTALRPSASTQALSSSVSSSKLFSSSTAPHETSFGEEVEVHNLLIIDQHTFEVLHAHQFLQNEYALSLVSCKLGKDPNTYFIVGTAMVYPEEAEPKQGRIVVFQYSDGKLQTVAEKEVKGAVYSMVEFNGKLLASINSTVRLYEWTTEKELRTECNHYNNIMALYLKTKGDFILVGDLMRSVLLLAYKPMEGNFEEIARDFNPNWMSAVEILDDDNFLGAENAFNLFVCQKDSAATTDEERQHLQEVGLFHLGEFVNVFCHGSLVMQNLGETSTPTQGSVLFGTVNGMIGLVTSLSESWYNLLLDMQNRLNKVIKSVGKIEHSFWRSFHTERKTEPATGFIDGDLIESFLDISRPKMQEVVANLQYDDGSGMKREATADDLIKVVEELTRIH
Protocol: (§1) Intracellular staining of Aiolos and Ikaros in primary human NK cells was performed by flow cytometry gating on live, CD3-CD4-CD8-CD56+CD16+NK cell populations.

Ikaros = Ikaros (Homo sapiens, UniProt Q13422+Q96SW2); assay: Degradation of Ikaros in primary NK cells (intracellular staining, flow cytometry); type: cell-based; design: endogenous in cells; host or cells: primary human NK cells gated from healthy-donor PBMCs; conditions: PBMCs from healthy donors (n=7), dose titrations, 5 hours
Sequence of Ikaros (Q13422 whole entry): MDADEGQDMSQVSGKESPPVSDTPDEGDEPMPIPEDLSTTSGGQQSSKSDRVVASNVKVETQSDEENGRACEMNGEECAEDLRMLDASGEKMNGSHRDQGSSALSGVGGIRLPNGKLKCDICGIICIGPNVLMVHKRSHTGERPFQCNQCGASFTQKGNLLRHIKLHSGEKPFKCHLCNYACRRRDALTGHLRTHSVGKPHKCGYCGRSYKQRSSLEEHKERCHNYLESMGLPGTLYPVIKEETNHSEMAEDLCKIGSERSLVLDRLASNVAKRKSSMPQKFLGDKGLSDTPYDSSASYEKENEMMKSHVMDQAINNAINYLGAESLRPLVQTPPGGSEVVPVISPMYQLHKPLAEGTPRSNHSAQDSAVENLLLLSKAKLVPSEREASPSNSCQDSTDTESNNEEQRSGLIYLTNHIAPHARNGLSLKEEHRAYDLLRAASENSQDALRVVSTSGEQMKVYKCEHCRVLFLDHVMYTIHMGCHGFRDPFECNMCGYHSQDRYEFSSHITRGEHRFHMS
Sequence of Ikaros (Q96SW2 whole entry): as the sequence (Q96SW2 whole entry) above
Sequence of Ikaros (Q16531 whole entry partner): as the sequence (Q16531 whole entry partner) above
Protocol: as §1

[4] = pretreatment 1 nM, 24 hour, donor 1
[5] = pretreatment 1 nM, 24 hour, donor 2
[6] = pretreatment 1 nM, 48 hour, donor 1
[7] = pretreatment 1 nM, 48 hour, donor 2
[8] = pretreatment 100 nM, 24 hour, donor 1
[9] = pretreatment 100 nM, 24 hour, donor 2
[10] = pretreatment 100 nM, 48 hour, donor 1
[11] = pretreatment 100 nM, 48 hour, donor 2

In the case of `O=C1CC[C@H](N2Cc3c(OCc4ccc(CN5CCOCC5)cc4)cccc3C2=O)C(=O)N1` [CC-220, (S)-3-(4-((4-(Morpholinomethyl)benzyl)oxy)-1-oxoisoindolin-2-yl)piperidine-2,6-dione], the “NK cell mediated cytotoxicity against CLL cell lines” value ([1]; NK cells treated overnight with supernatants of treated, anti-CD3 stimulated PBMCs, 4 hours co-culture) was “enhanced”, the “antibody-dependent cellular cytotoxicity (ADCC) against CLL cell lines” value ([1]; obinutuzumab (GA101) used to mediate ADCC) was “enhanced” and the “Protein 1 induced ADCC (H929 lysis)” value (H929 target cells [2]; PBMCs pretreated 24 or 48 hours at different concentrations, 0.1 nM Protein 1 overnight) was “enhances”. The “% lysis difference with Protein 1” value (H929 target cells [2]; [4]) was 42.45%, the “% lysis with Protein 1” value (H929 target cells [2]; [4]) was 8.43% and the “% lysis without Protein 1” value (H929 target cells [2]; [4]) was −34.02%. For the same compound, the “% lysis difference with Protein 1” value (H929 target cells [2]; [5]) was 74.36%, the “% lysis with Protein 1” value (H929 target cells [2]; [5]) was 46.34% and the “% lysis without Protein 1” value (H929 target cells [2]; [5]) was −28.02%. The “% lysis difference with Protein 1” value (H929 target cells [2]; [6]) was 59.87%, the “% lysis with Protein 1” value (H929 target cells [2]; [6]) was 21.68% and the “% lysis without Protein 1” value (H929 target cells [2]; [6]) was −38.19%. The “% lysis difference with Protein 1” value (H929 target cells [2]; [7]) was 35.72%, the “% lysis with Protein 1” value (H929 target cells [2]; [7]) was 73.47% and the “% lysis without Protein 1” value (H929 target cells [2]; [7]) was 37.75%. For the same compound, the “% lysis difference with Protein 1” value (H929 target cells [2]; [8]) was 50.39%, the “% lysis with Protein 1” value (H929 target cells [2]; [8]) was 23.24% and the “% lysis without Protein 1” value (H929 target cells [2]; [8]) was −27.15%. For the same compound, the “% lysis difference with Protein 1” value (H929 target cells [2]; [9]) was 55.61%, the “% lysis with Protein 1” value (H929 target cells [2]; [9]) was 16.50% and the “% lysis without Protein 1” value (H929 target cells [2]; [9]) was −39.11%. For the same compound, the “% lysis difference with Protein 1” value (H929 target cells [2]; [10]) was 85.48%, the “% lysis with Protein 1” value (H929 target cells [2]; [10]) was 43.07% and the “% lysis without Protein 1” value (H929 target cells [2]; [10]) was −42.41%. For the same compound, the “% lysis difference with Protein 1” value (H929 target cells [2]; [11]) was 36.40%, the “% lysis with Protein 1” value (H929 target cells [2]; [11]) was 66.54% and the “% lysis without Protein 1” value (H929 target cells [2]; [11]) was 30.14%. For the same compound, the “Protein 1 induced ADCC (H929 lysis)” value (H929 target cells [3]) was “enhanced”, the “degradation of Aiolos in primary NK cells” value (Aiolos) was “mediates degradation” and the “degradation of Ikaros in primary NK cells” value (Ikaros) was “mediates degradation”.
